Assay results: US20090325877A1, “Combination Product of Receptor Tyrosine Kinase Inhibitor and Fatty Acid Synthase Inhibitor for Treating Cancer” (Wyeth, priority 2008, published 2009)
≈ marks a conversion by molar mass, not a printed value. Like-named read-outs stand apart in the source and are kept apart here.

Columns and labels:
EGFR mRNA [1] = experiment: EGFR mRNA by RT-PCR and qRT-PCR in A2780 cells; assay type: cell-based, human
Procedure: RNA was extracted from the cells using TRI-REAGENT™ (Molecular Research Center, Cincinnati, Ohio) and subjected to reverse transcription—polymerase chain reaction (“RT-PCR”) using the TITAN ONE TUBE RT-PCR KIT™ system (Hoffmann-La Roche). […] Conditions for ErbB2 and GAPDH were: 50° C., 30 minutes; 94° C., 2 minutes; 10 cycles (94° C., 30 seconds; 51° C., 30 seconds; 68° C., 45 seconds); 25 cycles (94° C., 30 seconds; 51° C., 30 seconds; 68° C., 45 seconds +5 seconds autoextension) and 68° C., 7 minutes. […] Fragments were electrophoresed and stained with ethidium bromide.
(§1) Quantitative RT-PCR (“qRT-PCR”) was performed in the ABI PRISM 7000™ Sequence Detector (Applied Biosystems, Foster City, Calif.) using human EGFR, ErbB2, and FASN TaqMan® Gene Expression Assay systems (Applied Biosystems; Assay IDs: Hs00193306_m1, Hs00170433_m1, Hs00188012_m1) according to the manufacturer's instructions. β-actin and GAPDH (VIC™ and FAM labeled pre-developed TaqMan® Assay reagents, Applied Biosystems) were used as endogenous controls. EGFR, ErbB2, and FASN mRNA expression were calculated as described previously (Grunt, ibid).

EGFR protein = EGFR protein and tyrosine phosphorylation by Western blot in A2780 cells; assay type: cell-based
[2] = system: A2780 ovarian cancer cells; experiment: Formazan dye (MTT) in-vitro cell growth assay, A2780; assay type: cell-based; conditions: for IC50: Homo sapiens, 72 h
Procedure: Effect of FAS and ErbB inhibition on A2780 ovarian cancer cells (OCC). […] Cells were grown for three days in the presence of vehicle (0.1% DMSO) or synthetic inhibitor before cell number was estimated. Data in the charts represent means +/−SD of triplicate measurements.
Cells were plated at 0.5−5×10^3/well in 96-well plates. After adhesion, media ±drugs alone or in combination were added. Cell numbers were estimated after 3-5 days by using a colorimetric formazan dye assay (Biomedica, Vienna, Austria). Results (mean±SD, n=3) were expressed in percent of untreated (solvent) control. Statistical analysis of data from drug combination treatment experiments was performed using one-factorial ANOVA followed by Scheffe-test.
Yellow MTT (3-(4,5-Dimethylthiazol-2-yl)-2,5-diphenyltetrazolium bromide, a tetrazole) is reduced to purple formazan in the mitochondria of living cells (see Mosmann, T., J. Immunol. Methods, 65(1-2): 55-63, 1983).

FASN mRNA = FASN mRNA expression by qRT-PCR in A2780 cells; assay type: cell-based, human
Description: RNA was extracted from the cells using TRI-REAGENT™ (Molecular Research Center, Cincinnati, Ohio) and subjected to reverse transcription—polymerase chain reaction (“RT-PCR”) using the TITAN ONE TUBE RT-PCR KIT™ system (Hoffmann-La Roche). Primers were: EGFR: 5′-[…]-3′ (SEQ ID NO:1) (forward, E1S) 5′-[…]-3′ (SEQ ID NO:2) (reverse, E1A); ErbB-2: 5′-[…]-3′ (SEQ ID NO:3) (forward, E2S2), 5′-[…]-3′ (SEQ ID NO:4) (reverse, E2A2); GAPDH: 5′-[…]-3′ (SEQ ID NO:5) (forward, GAPDH3S), 5′-[…]-3′ (SEQ ID NO:6) (reverse, GAPDH3A). Conditions for reverse transcription and amplification of the EGFR coding sequence were: 50° C., 30 minutes; 94° C., 2 minutes; 10 cycles (94° C., 30 seconds; 64.9° C., 30 seconds; 68° C., 90 seconds); 30 cycles (94° C., 30 seconds; 64.9° C., 30 seconds; 68° C., 90 seconds +5 seconds autoextension) and 68° C., 7 minutes. Conditions for ErbB2 and GAPDH were: 50° C., 30 minutes; 94° C., 2 minutes; 10 cycles (94° C., 30 seconds; 51° C., 30 seconds; 68° C., 45 seconds); 25 cycles (94° C., 30 seconds; 51° C., 30 seconds; 68° C., 45 seconds +5 seconds autoextension) and 68° C., 7 minutes. DNA products had the following sizes: EGFR: 1452 bp, ErbB2: 900 bp, GAPDH: 488 bp. Fragments were electrophoresed and stained with ethidium bromide.
as §1

EGFR mRNA [3] = experiment: EGFR mRNA by qRT-PCR in SKBR3 breast cancer cells; assay type: cell-based; conditions: Homo sapiens, SK-BR-3, read-out: IC50, down-regulation of EGFR mRNA
Description: RNA was extracted from the cells using TRI-REAGENT™ (Molecular Research Center, Cincinnati, Ohio) and subjected to reverse transcription—polymerase chain reaction (“RT-PCR”) using the TITAN ONE TUBE RT-PCR KIT™ system (Hoffmann-La Roche). Primers were: EGFR: 5′-[…]-3′ (SEQ ID NO:1) (forward, E1S) 5′-[…]-3′ (SEQ ID NO:2) (reverse, E1A); ErbB-2: 5′-[…]-3′ (SEQ ID NO:3) (forward, E2S2), 5′-[…]-3′ (SEQ ID NO:4) (reverse, E2A2); GAPDH: 5′-[…]-3′ (SEQ ID NO:5) (forward, GAPDH3S), 5′-[…]-3′ (SEQ ID NO:6) (reverse, GAPDH3A). Conditions for reverse transcription and amplification of the EGFR coding sequence were: 50° C., 30 minutes; 94° C., 2 minutes; 10 cycles (94° C., 30 seconds; 64.9° C., 30 seconds; 68° C., 90 seconds); 30 cycles (94° C., 30 seconds; 64.9° C., 30 seconds; 68° C., 90 seconds +5 seconds autoextension) and 68° C., 7 minutes. […]
as §1

## C=C1C(=O)OC(CCCCCCCC)C1C(=O)O (stereo not drawn) [C75, tetrahydro-3-methylene-2-oxo-5-n-octyl-4-furancarboxylic acid]
EGFR mRNA [1]
  EGFR mRNA, effect in words: slowly and concordantly reduces
EGFR mRNA [1]; Homo sapiens, 72 h, after 3 days, read-out: IC50, down-regulation of EGFR mRNA
  IC50: 6.5 µg/mL (≈ 25.6 µM)
EGFR mRNA [1]; at 7 μg/ml
  IT50, EGFR mRNA: about 29 hours
EGFR protein
  EGFR total protein, effect in words: slowly and concordantly reduces
  EGFR tyrosine phosphorylation (activity), effect in words: slowly and concordantly reduces
  IT50, EGFR phosphorylation: 20 h
  IT50, EGFR protein: 29 h
EGFR protein; Homo sapiens, Western blot
  IC50: 3.6 µg/mL (≈ 14.2 µM)
[2]; A2780, MTT assay, single drug
  in vitro growth inhibition (in words): growth inhibitory activity
[2]; A2780 OCC, each individual inhibitor, 50% reduction of cell growth, three days, n = 3-5, read-out: IC50 (μM) Mean +/− SD
  IC50: 21.9 µM
[2]; A2780 ovarian cancer cells, grown three days with inhibitor, read-out: IC50, growth of OCC (MTT assay)
  IC50: 22 µM
FASN mRNA; Homo sapiens, 72 h, after 3 days, qRT-PCR, read-out: IC50, down-regulation of FASN mRNA expression
  IC50: 5.25 µg/mL (≈ 20.6 µM)
FASN mRNA; at 7 μg/ml
  IT50 (time of exposure after which a 50% inhibition is obtained), FASN mRNA: 21.5 h
FASN mRNA; b102: within three days, pelitinib at doses as low as 3 μM
  FASN mRNA expression, effect in words: shut-down
EGFR mRNA [3]
  IC50: 7.5 µg/mL (≈ 29.5 µM)
